Experiment: Stability in solution of 211At-labeling products of biotin-sarcosine-bis-B10 by radio-HPLC
Format: physicochemical
Description: FIGS. 22A-22D compare radio-HPLC chromatograms of reaction product from ^211At labeling of Compound 8 (see FIG. 21): 0.1 mg of Compound 8 was reacted with ^211At in 5% HOAc in MeOH/H2O without ChT at room temperature for 5 min (22A) and the reaction mixture sat at room temperature for about 1 h (22B); and 0.1 mg of Compound 8 was reacted with ^211At in 5% HOAc in MeOH/H2O with 10 μg of ChT at room temperature for 3 min. (22C) the reaction mixture after setting at room temperature for about 2 h (22D).
In an ^211At-labeling reaction with biotin-sarcosine-bis-B10, 8, a solution of [^211At]NaAt in 5% HOAc in MeOH/H2O was reacted at room temperature for 5 min without an oxidant. The reaction was quenched with 10 μL of 1 mg/mL Na2S2O5 (a reductant). The reaction provided one major ^211At labeled product (95%) as shown the radio-HPLC peak at about 10.1 min (FIG. 22A). […] In another ^211At-labeling reaction, the same reaction conditions as above were used except a chemical oxidant chloramine-T (ChT) was added to the reaction solution. The reaction with ChT provided multiple products that were eluted from 9-11 min. After sitting at room temperature for 2 h, a significant amount of free ^211At was observed (29%) (FIG. 22D).

3,5-B10H9-dioxa-Ph-Sar-Biotin [Compound 8]
free 211At observed (labeled with ChT, after sitting at room temperature for 2 h): 29%
change in 211At-labeled product in solution (labeled without oxidant, quenched, 1 h at room temperature): No change

From patent publication US20220354974A1, “REAGENTS AND METHODS FOR LABELING MOLECULES WITH ASTATINE ISOTOPES IN HIGHER OXIDATION STATES” (priority 2021, published 2022)
